Results published in patent US12215140B2, “Method of stabilizing protein contained in specimen and solution for stabilizing protein contained in specimen” (EIKEN KAGAKU KABUSHIKI KAISHA, priority 2018, dated 2025).

Test system: hemoglobin-haptoglobin complex
Test: Stability of hemoglobin (as hemoglobin-haptoglobin complex) in samples preserved at 37° C. in preservation solution containing 1 unit/L haptoglobin, Hb measured by latex agglutination method (Examples 1 to 7)
Parameters: species or system human
Settings: for Hb concentration / Recovery ratio with respect to Hb concentration after 0 days / Recovery ratio with respect to Hb after 0 days: 37° C.
Description: Preservation solutions were prepared with the addition of 40 mmol/L HEPES (pH 6.8), 0.1% BSA, 0.1% NaN3, 1 unit/L haptoglobin, and 0 to 100 mmol/L phenylboronic acid. Samples obtained by adding hemoglobin-added fecal specimens to the preservation solutions so that the fecal concentration would be 0.5% were preserved at 37° C. for 0, 7, 14, and 21 days. The fecal specimens were added with hemoglobin having an amount such that the hemoglobin concentration in the samples would be about 300 μg/L. Instead of the fecal specimens to which hemoglobin was added, samples containing no fecal specimens, in which hemoglobin was added to the preservation solutions so that the hemoglobin concentration in the samples would be 300 μg/L, were similarly preserved. The hemoglobin (Hb) concentrations (μg/L) in the preserved samples were measured by the latex agglutination method.
The concentrations of hemoglobin were measured using “OC-Hemodia (registered trademark) Auto III ‘EIKEN’” (available from EIKEN CHEMICAL CO., LTD.) as a measurement reagent and “OC-sensor DIANA” (available from EIKEN CHEMICAL CO., LTD.) as a measurement device. The above measurement reagent contains latex particles immobilizing an anti-human hemoglobin rabbit polyclonal antibody.
From the measured concentrations of hemoglobin, the recovery ratios (%) were calculated with respect to the hemoglobin concentrations immediately after the fecal specimens were added to the preservation solutions (i.e., concentrations 0 days after the fecal specimens were added).
(§1) For comparative examples, preservation solutions to which no arylboronic acid was added were prepared, and testing was conducted in the same manner.
(§2) The concentration of phenylboronic acid in the preservation solutions of Example 1 was fixed to 15 mmol/L, preservation solutions to which a sugar (sorbitol, sucrose, trehalose, glucose, fructose, or mannitol) was further added at 50 mmol/L or 100 mmol/L or preservation solutions to which no sugar was added were prepared, and testing was conducted in the same manner as in Example 1. For comparative examples, preservation solutions to which the phenylboronic acid and sugar were not added were prepared, and testing was conducted in the same manner.
Preservation solutions in which sorbitol, sucrose, trehalose, glucose, fructose, or mannitol was added at 100 mmol/L to the preservation solutions of Example 1 containing no phenylboronic acid were prepared, and testing was conducted in the same manner as in Example 1. For comparison, the same testing was conducted without adding these sugars.
as §2, with “sorbitol” for “a sugar (sorbitol, sucrose, trehalose, glucose, fructose, or mannitol)”, “was” for “was further”, “10 to 500” for “50”, “sucrose was added at 10 to 250” for “100”
as §1

[1] = Feces 3, sugar 50 mmol/L + phenylboronic acid 15 mmol/L, 7 days
[2] = Feces 3, sugar 50 mmol/L + phenylboronic acid 15 mmol/L, 14 days
[3] = Feces 3, sugar 50 mmol/L + phenylboronic acid 15 mmol/L, 21 days
[4] = Feces 3, sugar 100 mmol/L + phenylboronic acid 0.5 mmol/L, 0 days
[5] = Feces 3, sugar 100 mmol/L + phenylboronic acid 0.5 mmol/L, 7 days
[6] = Feces 3, sugar 100 mmol/L + phenylboronic acid 0.5 mmol/L, 14 days
[7] = Feces 3, sugar 100 mmol/L + phenylboronic acid 15 mmol/L, 0 days
[8] = Feces 3, sugar 100 mmol/L + phenylboronic acid 15 mmol/L, 0 days (Table 7)
[9] = Feces 3, sugar 100 mmol/L + phenylboronic acid 15 mmol/L, 7 days
[10] = Feces 3, sugar 100 mmol/L + phenylboronic acid 15 mmol/L, 7 days (Table 7)
[11] = Feces 3, sugar 100 mmol/L + phenylboronic acid 15 mmol/L, 14 days
[12] = Feces 3, sugar 100 mmol/L + phenylboronic acid 15 mmol/L, 14 days (Table 7)
[13] = Feces 3, sugar 100 mmol/L + phenylboronic acid 15 mmol/L, 21 days
[14] = Feces 3, sugar 100 mmol/L + phenylboronic acid 50 mmol/L, 0 days
[15] = Feces 3, sugar 100 mmol/L + phenylboronic acid 50 mmol/L, 7 days
[16] = Feces 3, sugar 100 mmol/L + phenylboronic acid 50 mmol/L, 14 days
[17] = Feces 3, sugar 100 mmol/L, no phenylboronic acid, 0 days
[18] = Feces 3, sugar 100 mmol/L, no phenylboronic acid, 7 days
[19] = Feces 3, sugar 100 mmol/L, no phenylboronic acid, 14 days
[20] = Feces 3, sugar 100 mmol/L, no phenylboronic acid, 21 days
[21] = No feces, sugar 50 mmol/L + phenylboronic acid 15 mmol/L, 0 days
[22] = No feces, sugar 50 mmol/L + phenylboronic acid 15 mmol/L, 7 days
[23] = No feces, sugar 50 mmol/L + phenylboronic acid 15 mmol/L, 14 days
[24] = No feces, sugar 50 mmol/L + phenylboronic acid 15 mmol/L, 21 days
[25] = No feces, sugar 100 mmol/L + phenylboronic acid 0.5 mmol/L, 0 days
[26] = No feces, sugar 100 mmol/L + phenylboronic acid 0.5 mmol/L, 7 days
[27] = No feces, sugar 100 mmol/L + phenylboronic acid 0.5 mmol/L, 14 days
[28] = No feces, sugar 100 mmol/L + phenylboronic acid 15 mmol/L, 0 days
[29] = No feces, sugar 100 mmol/L + phenylboronic acid 15 mmol/L, 0 days (Table 7)
[30] = No feces, sugar 100 mmol/L + phenylboronic acid 15 mmol/L, 7 days
[31] = No feces, sugar 100 mmol/L + phenylboronic acid 15 mmol/L, 7 days (Table 7)
[32] = No feces, sugar 100 mmol/L + phenylboronic acid 15 mmol/L, 14 days
[33] = No feces, sugar 100 mmol/L + phenylboronic acid 15 mmol/L, 14 days (Table 7)
[34] = No feces, sugar 100 mmol/L + phenylboronic acid 15 mmol/L, 21 days
[35] = No feces, sugar 100 mmol/L + phenylboronic acid 50 mmol/L, 0 days
[36] = No feces, sugar 100 mmol/L + phenylboronic acid 50 mmol/L, 7 days
[37] = No feces, sugar 100 mmol/L + phenylboronic acid 50 mmol/L, 14 days
[38] = No feces, sugar 100 mmol/L, no phenylboronic acid, 0 days
[39] = No feces, sugar 100 mmol/L, no phenylboronic acid, 7 days
[40] = No feces, sugar 100 mmol/L, no phenylboronic acid, 14 days
[41] = No feces, sugar 100 mmol/L, no phenylboronic acid, 21 days

OC[C@@H](O)[C@@H](O)[C@H](O)[C@@H](O)CO [Sorbitol, sorbitol]
Hb concentration [1]: 250 µg/L
Recovery ratio with respect to Hb concentration after 0 days [1]: 88%
Hb concentration [2]: 235 µg/L
Recovery ratio with respect to Hb concentration after 0 days [2]: 83%
Hb concentration [3]: 223 µg/L
Recovery ratio with respect to Hb concentration after 0 days [3]: 79%
Hb concentration [4]: 294 µg/L
Recovery ratio with respect to Hb after 0 days [4]: 100%
Hb concentration [5]: 163 µg/L
Recovery ratio with respect to Hb after 0 days [5]: 55%
Hb concentration [6]: 145 µg/L
Recovery ratio with respect to Hb after 0 days [6]: 49%
Hb concentration [7]: 278 µg/L
Recovery ratio with respect to Hb concentration after 0 days [7]: 100%
Hb concentration [8]: 292 µg/L
Recovery ratio with respect to Hb after 0 days [8]: 100%
Hb concentration [9]: 244 µg/L
Recovery ratio with respect to Hb concentration after 0 days [9]: 88%
Hb concentration [10]: 246 µg/L
Recovery ratio with respect to Hb after 0 days [10]: 84%
Hb concentration [11]: 226 µg/L
Recovery ratio with respect to Hb concentration after 0 days [11]: 81%
Hb concentration [12]: 233 µg/L
Recovery ratio with respect to Hb after 0 days [12]: 80%
Hb concentration [13]: 219 µg/L
Recovery ratio with respect to Hb concentration after 0 days [13]: 79%
Hb concentration [14]: 273 µg/L
Recovery ratio with respect to Hb after 0 days [14]: 100%
Hb concentration [15]: 247 µg/L
Recovery ratio with respect to Hb after 0 days [15]: 90%
Hb concentration [16]: 230 µg/L
Recovery ratio with respect to Hb after 0 days [16]: 84%
Hb concentration [17]: 278 µg/L
Recovery ratio with respect to Hb concentration after 0 days [17]: 100%
Hb concentration [18]: 98 µg/L
Recovery ratio with respect to Hb concentration after 0 days [18]: 35%
Hb concentration [19]: 62 µg/L
Recovery ratio with respect to Hb concentration after 0 days [19]: 22%
Hb concentration [20]: 56 µg/L
Recovery ratio with respect to Hb concentration after 0 days [20]: 20%
Hb concentration [21]: 281 µg/L
Recovery ratio with respect to Hb concentration after 0 days [21]: 100%
Hb concentration [22]: 261 µg/L
Recovery ratio with respect to Hb concentration after 0 days [22]: 93%
Hb concentration [23]: 251 µg/L
Recovery ratio with respect to Hb concentration after 0 days [23]: 89%
Hb concentration [24]: 265 µg/L
Recovery ratio with respect to Hb concentration after 0 days [24]: 94%
Hb concentration [25]: 291 µg/L
Recovery ratio with respect to Hb after 0 days [25]: 100%
Hb concentration [26]: 277 µg/L
Recovery ratio with respect to Hb after 0 days [26]: 95%
Hb concentration [27]: 273 µg/L
Recovery ratio with respect to Hb after 0 days [27]: 94%
Hb concentration [28]: 276 µg/L
Recovery ratio with respect to Hb concentration after 0 days [28]: 100%
Hb concentration [29]: 288 µg/L
Recovery ratio with respect to Hb after 0 days [29]: 100%
Hb concentration [30]: 252 µg/L
Recovery ratio with respect to Hb concentration after 0 days [30]: 91%
Hb concentration [31]: 274 µg/L
Recovery ratio with respect to Hb after 0 days [31]: 95%
Hb concentration [32]: 244 µg/L
Recovery ratio with respect to Hb concentration after 0 days [32]: 88%
Hb concentration [33]: 268 µg/L
Recovery ratio with respect to Hb after 0 days [33]: 93%
Hb concentration [34]: 255 µg/L
Recovery ratio with respect to Hb concentration after 0 days [34]: 92%
Hb concentration [35]: 290 µg/L
Recovery ratio with respect to Hb after 0 days [35]: 100%
Hb concentration [36]: 295 µg/L
Recovery ratio with respect to Hb after 0 days [36]: 102%
Hb concentration [37]: 293 µg/L
Recovery ratio with respect to Hb after 0 days [37]: 101%
Hb concentration [38]: 255 µg/L
Recovery ratio with respect to Hb concentration after 0 days [38]: 100%
Hb concentration [39]: 239 µg/L
Recovery ratio with respect to Hb concentration after 0 days [39]: 94%
Hb concentration [40]: 235 µg/L
Recovery ratio with respect to Hb concentration after 0 days [40]: 92%
Hb concentration [41]: 236 µg/L
Recovery ratio with respect to Hb concentration after 0 days [41]: 93%
recovery ratio of hemoglobin in the sample (sugar 100 mmol/L further added to other arylboronic acids (3-CPBA, 3-HPBA, 3-APBA) 15 mmol/L, Feces 1, Feces 2, Feces 3): further improved
recovery ratio of hemoglobin in the samples containing fecal specimens (sugar 100 mmol/L, preservation solutions containing no phenylboronic acid): does not improve
recovery ratio of hemoglobin in the sample (sugar 50 or 100 mmol/L further added to phenylboronic acid 15 mmol/L, Feces 1, Feces 2, Feces 3): remarkably improved
recovery ratio of hemoglobin in the samples containing feces (sugar added to phenylboronic acid 15 mmol/L, Feces 1, Feces 2, Feces 3): improved depending on the added concentration
